Article PMC7756656, “Discovery of Homobivalent Bitopic Ligands of the Cannabinoid CB2 Receptor” (Chemistry (Weinheim an Der Bergstrasse, Germany), 2020)

Key:
CB2R (hCB2R) [1] = molecular target: T1, CB2R (hCB2R) (Homo sapiens, UniProt P34972); test: inhibition of forskolin-induced cAMP, HEK-293T cells; type: cell-based; settings: read-out: Wild type / pEC50 (converted)
T1 construct: gene CNR2; expressed in HEK-293T cells

CB2R (hCB2R) [2] = molecular target: T2, CB2R (hCB2R) (Homo sapiens, UniProt P34972, V36M); test: as above; type: cell-based; settings: read-out: Val36^1.35Met / pEC50 (converted)
T2 construct: gene CNR2; expressed in HEK-293T cells

CB2R (hCB2R) [3] = molecular target: T1, CB2R (hCB2R); test: [3H]CP-55, […] competition binding, HEK-293T membranes; settings: read-out: CB2R Ki [μM]^[b]
CB2R (hCB2R) [4] = molecular target: T3, CB2R (hCB2R) (Homo sapiens, UniProt P34972, A282M); test: inhibition of forskolin-induced cAMP, HEK-293T cells; type: cell-based; settings: read-out: Ala282^7.36Met / pEC50 (converted)
T3 construct: gene CNR2; expressed in HEK-293T cells

CB1R (hCB1R) = molecular target: T4, CB1R (hCB1R) (Homo sapiens, UniProt P21554); test: [3H]CP-55, […] competition binding, HEK-293T membranes; settings: read-out: CB1R Ki [μM]^[b]
T4 construct: gene CNR1; expressed in HEK-293T cells; membrane fractions

[5] = as above; parameters: species or system Homo sapiens; settings: read-out: CB1R Ki [μM]^[b]

T1 sequence (P34972 whole entry): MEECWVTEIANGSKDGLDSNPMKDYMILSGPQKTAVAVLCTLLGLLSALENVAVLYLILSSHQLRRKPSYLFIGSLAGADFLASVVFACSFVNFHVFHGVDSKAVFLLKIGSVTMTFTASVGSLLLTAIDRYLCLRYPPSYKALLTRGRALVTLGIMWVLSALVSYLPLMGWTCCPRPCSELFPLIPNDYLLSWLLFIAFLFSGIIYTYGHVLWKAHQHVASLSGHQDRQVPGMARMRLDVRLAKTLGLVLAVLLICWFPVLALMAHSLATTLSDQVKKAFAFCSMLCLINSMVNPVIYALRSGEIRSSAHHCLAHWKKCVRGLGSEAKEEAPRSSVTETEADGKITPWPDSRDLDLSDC
T4 sequence (P21554 whole entry): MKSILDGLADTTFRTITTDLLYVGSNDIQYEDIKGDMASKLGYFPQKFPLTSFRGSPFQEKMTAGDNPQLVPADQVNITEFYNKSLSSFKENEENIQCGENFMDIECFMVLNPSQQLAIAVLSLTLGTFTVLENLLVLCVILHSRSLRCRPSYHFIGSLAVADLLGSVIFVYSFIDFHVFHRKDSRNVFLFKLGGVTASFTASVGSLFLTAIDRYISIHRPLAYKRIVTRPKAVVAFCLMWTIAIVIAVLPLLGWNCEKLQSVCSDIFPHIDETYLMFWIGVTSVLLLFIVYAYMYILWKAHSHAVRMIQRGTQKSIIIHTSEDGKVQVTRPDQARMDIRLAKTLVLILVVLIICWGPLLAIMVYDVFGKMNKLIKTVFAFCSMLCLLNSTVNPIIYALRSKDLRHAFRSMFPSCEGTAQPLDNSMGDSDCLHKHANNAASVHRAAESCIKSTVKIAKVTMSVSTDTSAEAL
T3 sequence (P34972 whole entry A282M): as the sequence (P34972 whole entry) above, with A282M counted along it
T2 sequence (P34972 whole entry V36M): as the sequence (P34972 whole entry) above, with V36M counted along it

Row | Structure (SMILES) | EC50 (CB2R (hCB2R) [1]) [nM] | EC50 (CB2R (hCB2R) [2]) [nM] | Ki (CB2R (hCB2R) [3]) [µM] | EC50 (CB2R (hCB2R) [4]) [nM] | Ki (CB1R (hCB1R)) [µM] | Ki [5] [µM]
1 | CCCCCCC(C)(C)c1cc(OCCCCCCCCCCOc2cc(C(C)(C)CCCCCC)cc3c2-c2c(cnn2CC)C(C)(C)O3)c2c(c1)OC(C)(C)c1cnn(CC)c1-2 [compound 22, bivalent chromenopyrazole 22 (R1 = N1-Et, n = 8)] | 79.4 | 20 | 0.9 ± 0.2 | 63.1 | > 40 | 
2 | CCCCCCC(C)(C)c1cc(OCCCCCCCCCCCCCCOc2cc(C(C)(C)CCCCCC)cc3c2-c2nn(CC)cc2C(C)(C)O3)c2c(c1)OC(C)(C)c1cn(CC)nc1-2 [compound 27] | 25.1 | 79.4 | 0.3 ± 0.1 | 50.1 | > 40 | 
3 | CCCCCCC(C)(C)c1cc(OCCCCCCCCCCCCCCCCOc2cc(C(C)(C)CCCCCC)cc3c2-c2c(cnn2CC)C(C)(C)O3)c2c(c1)OC(C)(C)c1cnn(CC)c1-2 [compound 28, bivalent chromenopyrazole 28 (R1 = N1-Et, n = 14)] |  |  |  |  | > 40 | > 40
